The source made the active and inactive calls.
How the values were obtained:
[1] = A Cell Based Secondary Assay To Explore Cytotoxicity of Compounds that Sensitize Mycobacterium Tuberculosis to Beta-Lactam Antibiotics.; assay type: functional
[2] = target: T1, Sentrin-specific protease 6 (Homo sapiens, UniProt Q9GZR1); assay type: functional;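 also: Luminescence-based dose-response confirmatory assay of SENP6 inhibition, following up an ultra-high-throughput screen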
T1 sequence (Q9GZR1 whole entry): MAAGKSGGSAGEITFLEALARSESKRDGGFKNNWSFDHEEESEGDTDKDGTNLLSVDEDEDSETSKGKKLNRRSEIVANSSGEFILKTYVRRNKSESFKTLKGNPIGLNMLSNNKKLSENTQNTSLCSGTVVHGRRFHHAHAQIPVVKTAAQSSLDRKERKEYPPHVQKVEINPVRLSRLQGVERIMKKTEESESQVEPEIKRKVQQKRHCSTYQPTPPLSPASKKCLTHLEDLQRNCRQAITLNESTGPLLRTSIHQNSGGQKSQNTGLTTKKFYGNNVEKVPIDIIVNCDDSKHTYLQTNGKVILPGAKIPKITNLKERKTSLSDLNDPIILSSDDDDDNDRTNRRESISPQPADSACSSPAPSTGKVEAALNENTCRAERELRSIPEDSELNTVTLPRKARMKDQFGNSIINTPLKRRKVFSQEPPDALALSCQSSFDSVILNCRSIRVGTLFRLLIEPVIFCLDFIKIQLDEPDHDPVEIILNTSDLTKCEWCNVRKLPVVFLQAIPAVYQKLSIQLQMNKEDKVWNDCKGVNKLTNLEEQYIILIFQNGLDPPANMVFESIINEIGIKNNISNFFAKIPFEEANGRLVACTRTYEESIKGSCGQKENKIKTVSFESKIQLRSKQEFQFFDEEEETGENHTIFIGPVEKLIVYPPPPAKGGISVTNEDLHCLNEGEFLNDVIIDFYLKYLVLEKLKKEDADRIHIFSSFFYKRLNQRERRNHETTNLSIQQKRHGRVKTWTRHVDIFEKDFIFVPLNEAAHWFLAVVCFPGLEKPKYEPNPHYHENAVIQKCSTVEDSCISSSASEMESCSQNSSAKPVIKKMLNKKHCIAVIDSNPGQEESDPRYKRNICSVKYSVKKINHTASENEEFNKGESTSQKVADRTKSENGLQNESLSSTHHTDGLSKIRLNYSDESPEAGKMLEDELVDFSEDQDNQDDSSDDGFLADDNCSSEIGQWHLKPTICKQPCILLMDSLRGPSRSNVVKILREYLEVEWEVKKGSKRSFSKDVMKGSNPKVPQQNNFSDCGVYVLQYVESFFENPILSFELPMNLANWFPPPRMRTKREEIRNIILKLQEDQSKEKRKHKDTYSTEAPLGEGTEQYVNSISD

Caspase-3 = target: T2, Caspase-3 (Homo sapiens, UniProt P42574); assay type: functional;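 also: Dose-response selectivity test against caspase-3 for candidate inhibitors of sentrin-specific proteases (SENPs)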
T2 sequence (P42574 whole entry): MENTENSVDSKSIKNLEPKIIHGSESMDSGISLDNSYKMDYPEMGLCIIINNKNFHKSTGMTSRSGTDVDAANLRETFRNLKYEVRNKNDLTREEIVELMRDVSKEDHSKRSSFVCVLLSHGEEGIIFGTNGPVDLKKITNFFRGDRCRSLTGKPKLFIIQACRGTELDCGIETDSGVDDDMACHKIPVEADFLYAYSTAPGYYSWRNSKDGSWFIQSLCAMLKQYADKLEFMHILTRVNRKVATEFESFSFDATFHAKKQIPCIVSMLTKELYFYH

[3] = target: T3, Sentrin-specific protease 7 (Homo sapiens, UniProt Q9BQF6); assay type: functional;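 also: Luminescence-based dose-response confirmation of ultra-high-throughput screening hits, measuring inhibition of SENP7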
T3 sequence (Q9BQF6 whole entry): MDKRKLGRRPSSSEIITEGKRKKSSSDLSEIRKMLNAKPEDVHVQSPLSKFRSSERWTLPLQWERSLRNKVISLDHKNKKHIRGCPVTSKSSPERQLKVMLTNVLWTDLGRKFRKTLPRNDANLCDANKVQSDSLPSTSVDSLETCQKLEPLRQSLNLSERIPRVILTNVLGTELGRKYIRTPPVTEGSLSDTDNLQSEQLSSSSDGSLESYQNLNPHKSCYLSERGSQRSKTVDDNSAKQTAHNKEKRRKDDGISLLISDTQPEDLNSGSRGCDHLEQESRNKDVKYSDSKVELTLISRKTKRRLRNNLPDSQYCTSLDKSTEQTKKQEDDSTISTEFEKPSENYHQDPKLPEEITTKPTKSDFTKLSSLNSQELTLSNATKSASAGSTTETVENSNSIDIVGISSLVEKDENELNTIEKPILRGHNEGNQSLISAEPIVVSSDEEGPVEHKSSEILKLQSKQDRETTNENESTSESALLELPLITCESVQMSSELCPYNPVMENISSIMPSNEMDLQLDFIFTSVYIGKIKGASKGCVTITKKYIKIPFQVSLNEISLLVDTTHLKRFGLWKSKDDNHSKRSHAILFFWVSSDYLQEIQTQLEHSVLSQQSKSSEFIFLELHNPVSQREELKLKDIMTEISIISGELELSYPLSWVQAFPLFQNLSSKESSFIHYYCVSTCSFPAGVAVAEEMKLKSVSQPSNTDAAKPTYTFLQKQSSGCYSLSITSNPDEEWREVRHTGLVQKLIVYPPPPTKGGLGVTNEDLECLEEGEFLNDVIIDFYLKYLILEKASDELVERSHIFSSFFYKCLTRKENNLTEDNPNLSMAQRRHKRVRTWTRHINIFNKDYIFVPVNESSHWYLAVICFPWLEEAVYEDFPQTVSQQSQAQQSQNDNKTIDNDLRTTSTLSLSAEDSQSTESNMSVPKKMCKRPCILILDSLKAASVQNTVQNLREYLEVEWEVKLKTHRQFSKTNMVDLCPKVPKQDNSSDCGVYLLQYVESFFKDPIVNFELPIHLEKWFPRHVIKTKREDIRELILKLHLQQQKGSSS

[4] = target: T4, Sentrin-specific protease 8 (Homo sapiens, UniProt Q96LD8); assay type: functional;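 also: luminescence read-out of SENP8 inhibition, dose-response confirmation following an ultra-high-throughput screen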
T4 sequence (Q96LD8 whole entry): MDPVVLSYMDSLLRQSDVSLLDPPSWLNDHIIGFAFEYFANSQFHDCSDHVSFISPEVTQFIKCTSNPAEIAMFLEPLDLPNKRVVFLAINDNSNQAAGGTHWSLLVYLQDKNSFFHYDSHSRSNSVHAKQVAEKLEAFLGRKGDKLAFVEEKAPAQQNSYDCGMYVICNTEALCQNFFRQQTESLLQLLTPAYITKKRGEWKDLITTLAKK

[5] = target: Eukaryotic translation initiation factor 4E (Mus musculus, UniProt P63073); assay: eIF4E–eIF4G protein interaction inhibitors, dose response, biochemical, TR-FRET (AID 855); assay type: functional;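 also: potency for disrupting eIF4E binding to eIF4GI seen as loss of FRET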
Chain of Eukaryotic translation initiation factor 4E (P63073 whole entry): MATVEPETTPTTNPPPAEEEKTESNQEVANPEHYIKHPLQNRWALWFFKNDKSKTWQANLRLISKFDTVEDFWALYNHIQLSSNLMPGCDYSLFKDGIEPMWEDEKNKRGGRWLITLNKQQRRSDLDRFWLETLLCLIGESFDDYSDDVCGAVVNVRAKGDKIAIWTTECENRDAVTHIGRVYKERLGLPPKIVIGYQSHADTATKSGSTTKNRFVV

[6] = cytotoxicity in HEK-293T cells, dose response, cytotoxicity control for TCR NF-kB inhibitor project, luminescence, T-cell screen hits (AID 489026); assay type: functional, cell-based;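 also: cells exposed to compound about 14 hours before the viability readout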
[7] = target: T5, Carboxy-terminal domain RNA polymerase II polypeptide A small phosphatase 1 (Homo sapiens, UniProt Q9GZU7); assay: inhibitors of CTDSP1, concentration-response testing, biochemical assay, absorbance-based, actives from ultra-high-throughput screening (AID 540297); assay type: functional
T5 sequence (Q9GZU7 whole entry): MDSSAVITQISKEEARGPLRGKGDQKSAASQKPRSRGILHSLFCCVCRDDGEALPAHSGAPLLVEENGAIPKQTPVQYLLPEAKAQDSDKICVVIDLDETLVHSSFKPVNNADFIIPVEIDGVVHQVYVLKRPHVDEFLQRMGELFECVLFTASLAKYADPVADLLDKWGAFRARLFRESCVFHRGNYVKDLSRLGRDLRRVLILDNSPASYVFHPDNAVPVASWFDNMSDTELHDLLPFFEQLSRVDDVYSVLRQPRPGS

[8] = growth suppression of beta-catenin-knockout colon cells, dose response, cell-based, HCT116, human colon tumor (AID 1045); assay type: functional;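 also: HCT116 colon tumor cells with beta catenin knocked out; cells exposed to compound for 60 hours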
[9] = growth suppression of PTEN-null colon cells, dose response, cell-based, HCT116 PTEN knockout (AID 1047); assay type: functional;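 also: HCT116 colon tumor cells with PTEN knocked out; cells exposed to compound for 60 hours before readout; potency for loss of cell viability measured by luminescence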

| SMILES | IC50 [2] | IC50 (Caspase-3) | IC50 [3] | IC50 [4] | IC50 [5] | also measured |
| --- | --- | --- | --- | --- | --- | --- |
| CC1CCCN(S(=O)(=O)c2ccc(C(=O)Nc3nnc(-c4ccncc4)o3)cc2)C1 (stereo unspecified) | – | – | – | – | – | CC50 [1]: 12.7 µM (active) |
| O=C(O)C(Oc1ccc2cc(-c3ccc(Cl)cc3)c(=O)oc2c1)c1ccccc1 (stereo unspecified) | 31.3 µM (active) | 38.3 µM (active) | 28.7 µM (active) | 31.8 µM (active) | – | – |
| COc1ccc([C@H]2[C@H](C(C)=O)N3N=Cc4ccccc4C3C23C(=O)OC(C)(C)OC3=O)cc1 (stereo partly specified) | – | – | – | – | > 64 µM (inactive) | – |
| Cc1ccc(C(=O)c2cc3ccccc3o2)cc1C | 6.41 µM (active) | 11.2 µM (active) | 3.18 µM (active) | 10.6 µM (active) | – | – |
| COc1cc(C(=O)Nc2ccc3c(c2)CCN3C(C)=O)cc(OC)c1OC | – | – | – | – | – | IC50 [6]: > 80 µM (inactive) |
| O=C(Cc1cccs1)Nc1ccc(S(=O)(=O)N2CCCC2)cc1 | – | – | – | – | 50 µM (inactive) | IC50 [7]: 5.04 µM (active) |
| O=C(Nc1ccc2ncccc2c1)c1cccc(Br)c1 | 29.1 µM (active) | 32.1 µM (active) | 8.67 µM (active) | 28.7 µM (active) | – | – |
| Cc1ccc(OCc2nnc(-c3ccccn3)[nH]2)cc1 | – | – | – | – | > 64 µM (inactive) | – |
| COCc1nnc(NC(=O)c2ccc(S(=O)(=O)N(C)c3ccccc3)cc2)o1 | – | – | – | – | – | EC50 [8]: 18.3 µM (active); CC50 [1]: 18.6 µM (active); EC50 [9]: 20.6 µM (active) |
